Literature values in the CATMoS acute toxicity set (Mansouri et al. 2021).
Where “and” joins values, the source holds several entries; their conditions need not be identical. Equal values may be shown once.

Experiment: rat acute oral toxicity
Details: in vivo

With `CCOP(=S)(OCC)SCn1nc(CC)ccc1=O` as the compound, how does the LD50 read?
The LD50 was 18.8 mg/kg.

Which LD50 does the source give for `S=C=NCCN=C=S` here?
The LD50 was 112 mg/kg.

With `CCCCOC(=O)CC(SP(=O)(OC)OC)C(=O)OCCCC` (stereo not given) as the compound, how does the LD50 read?
The LD50 was 515 mg/kg.

For `CC(=O)Cl`, which LD50 is on record?
Its LD50 is 910 mg/kg.

Which LD50 does the source give for `CN(C)c1ccc(O)cc1` here?
The LD50 was 689 mg/kg.

Which LD50 does the source give for `S=C(NC1CCCCC1)NC1CCCCC1` here?
The LD50 was 500 mg/kg.

With `CCCCCCc1ccc(C)cc1O` as the compound, how does the LD50 read?
Its LD50 is 2300 mg/kg.

With `O=C(C(F)(F)F)C(F)(F)F` as the compound, how does the LD50 read?
Its LD50 is 190 mg/kg and 191 mg/kg.

For `O=S(=O)(O)c1cc(O)ccc1O`, which LD50 is on record?
The LD50 was 7500 mg/kg.

For `O=C(Cl)C(c1ccccc1)c1ccccc1`, which LD50 is on record?
Its LD50 is 6330 mg/kg.

For `ClCc1cccnc1`, which LD50 is on record?
The LD50 was 316 mg/kg.

With `CCN(CC)Cc1nccn1-c1ccc([N+](=O)[O-])cc1C(=O)c1ccccc1Cl` as the compound, how does the LD50 read?
The LD50 was 1580 mg/kg.

With `CCOC(=O)N1C(=O)NC(c2ccccc2)(c2ccccc2)C1=O` as the compound, how does the LD50 read?
Its LD50 is 3500 mg/kg.

For `N#CC(Cl)CS(=O)(=O)c1ccccc1` (stereo not given), which LD50 is on record?
Its LD50 is 540 mg/kg.

Which LD50 does the source give for `C1=CC=CCC=C1` here?
Its LD50 is 57 mg/kg.

For `Cc1ccccc1OCC(O)CN(NC=NC(=O)c1ccccc1)C(C)C` (stereo not given), which LD50 is on record?
Its LD50 is 2930 mg/kg.

For `CC(C)(C#N)/N=N/C(C)(C)C#N`, which LD50 is on record?
Its LD50 is 100 mg/kg.

With `C=CCOC(=O)CCCCCCC` as the compound, how does the LD50 read?
The LD50 was 570 mg/kg.

For `CCOC(=O)Cc1cccc2ccccc12`, which LD50 is on record?
The LD50 was 3580 mg/kg.

For `ClC1(Cl)C2(Cl)C3C4(Cl)C1(Cl)C1(Cl)C4(Cl)C(Cl)(Cl)C3(Cl)C21Cl` (stereo not given), which LD50 is on record?
The LD50 was 200 mg/kg.

For `CC(=O)O[C@H]1C[C@H](O[C@H]2[C@@H](OC=O)C[C@H](O[C@H]3[C@@H](OC=O)C[C@H](O[C@H]4CC[C@@]5(C)[C@H](CC[C@@H]6[C@@H]5CC[C@]5(C)[C@@H](C7=CC(=O)OC7)[C@@H](OC=O)C[C@]65O)C4)O[C@@H]3C)O[C@@H]2C)O[C@H](C)[C@H]1OC=O`, which LD50 is on record?
Its LD50 is 39 mg/kg.

Which LD50 does the source give for `C/C=C(C)/C=C/C=C(C)C` here?
Its LD50 is 1900 mg/kg.

Which LD50 does the source give for `CC(=O)CCCO` here?
The LD50 was 6400 mg/kg.

Which LD50 does the source give for `N=C1C=C(Br)C(=O)c2c(N)cc(Br)c(O)c21` here?
The LD50 was 2400 mg/kg.

Which LD50 does the source give for `CN(CO)C(=O)Oc1cccc2ccccc12` here?
Its LD50 is 5360 mg/kg.

For `COP(=O)(OC)ON1C(=O)c2cccc3cccc(c23)C1=O`, which LD50 is on record?
Its LD50 is 70 mg/kg.

Which LD50 does the source give for `CCCCCCC(C)I` (stereo not given) here?
The LD50 was 8200 mg/kg.

For `CCCCCCCCN1CCCC1=O`, which LD50 is on record?
Its LD50 is 2050 mg/kg.

Which LD50 does the source give for `C#CCN(C)c1ccccc1OC(=O)NC` here?
The LD50 was 60 mg/kg.

For `CCCN=C(N)C(OCC)c1ccccc1` (stereo not given), which LD50 is on record?
The LD50 was 530 mg/kg.

With `O=C1c2ccccc2C(=O)c2c1cccc2S(=O)(=O)O` as the compound, how does the LD50 read?
The LD50 was 20000 mg/kg.

With `O=CCCCC(O)C=O` (stereo not given) as the compound, how does the LD50 read?
Its LD50 is 17000 mg/kg.

With `c1ccc2c(c1)CCCC2C1=NCCN1` (stereo not given) as the compound, how does the LD50 read?
The LD50 was 785 mg/kg.

For `CC1(CCl)COC1`, which LD50 is on record?
The LD50 was 1120 mg/kg.

With `CCCCCCCCOC(=O)C1=C(C)NC(C)=C(C(=O)NC2CC2)C1c1ccccc1[N+](=O)[O-]` (stereo not given) as the compound, how does the LD50 read?
The LD50 was 50 mg/kg.

With `C=CCN1CCC23CCCCC2C1Cc1ccc(O)cc13` (stereo not given) as the compound, how does the LD50 read?
The LD50 was 850 mg/kg.

With `COc1cccc(C=Nc2c(C)n(C)n(-c3ccccc3)c2=O)c1` as the compound, how does the LD50 read?
Its LD50 is 5600 mg/kg.

For `COc1ccc2c(=O)oc3c(OC)cc(CCN(C)C)c4c(=O)oc1c2c34`, which LD50 is on record?
The LD50 was 518 mg/kg.

With `CCC=CCC=CCC=CCC=CCC=CCC=CCCC(=O)O` as the compound, how does the LD50 read?
Its LD50 is 10000 mg/kg.

For `C=CCn1ccc(=O)c(O)c1C`, which LD50 is on record?
Its LD50 is 800 mg/kg.

Which LD50 does the source give for `O=C(O)c1ccccc1-c1ccccc1CO` here?
The LD50 was 6500 mg/kg.

With `CC(C=O)c1ccccc1` (stereo not given) as the compound, how does the LD50 read?
Its LD50 is 2800 mg/kg.

For `CC(C)(N)Cc1ccccc1`, which LD50 is on record?
Its LD50 is 188 mg/kg.

For `NC(=S)NC(N)=S`, which LD50 is on record?
The LD50 was 5 mg/kg.

With `Cc1c(C)c(C)c2[nH]c(C(F)(F)F)nc2c1C` as the compound, how does the LD50 read?
Its LD50 is 58 mg/kg.

Which LD50 does the source give for `CSCCC(O)C(=O)O` (stereo not given) here?
The LD50 was 3480 mg/kg.

Which LD50 does the source give for `ON=C1C=CC(=NO)C=C1` here?
The LD50 was 464 mg/kg.

Which LD50 does the source give for `O=NN(CCCl)C(=O)NCCCl` here?
The LD50 was 20 mg/kg.

Which LD50 does the source give for `CCCCNC(=S)N(CCCC)CCCC` here?
Its LD50 is 3000 mg/kg.

With `N#Cc1sc2c(=O)c3ccccc3c(=O)c=2sc1C#N` as the compound, how does the LD50 read?
The LD50 was 638 mg/kg.

With `COc1ccc(-c2ccccc2)cc1CN1CCCC1` as the compound, how does the LD50 read?
Its LD50 is 28 mg/kg.

With `O=C(NCC1CCCCN1)c1cc(OCC(F)(F)F)ccc1OCC(F)(F)F` (stereo not given) as the compound, how does the LD50 read?
The LD50 was 1350 mg/kg.

For `COP(=O)(OC)SCn1c(=O)oc2cc(Cl)cnc21`, which LD50 is on record?
Its LD50 is 1180 mg/kg.

Which LD50 does the source give for `CC(C(=O)O)c1ccc(N2CC3=C(CC=CC3)C2=O)cc1` (stereo not given) here?
Its LD50 is 328 mg/kg.

For `C=CCSC1=NCCS1`, which LD50 is on record?
Its LD50 is 110 mg/kg.

For `O=C1CCC(=O)N1c1cc(Cl)cc(Cl)c1`, which LD50 is on record?
Its LD50 is 890 mg/kg.

For `CN(C)c1ccc(N)cc1`, which LD50 is on record?
The LD50 was 48 mg/kg.

For `CCCCCCCCCCCCCCCCCC(=O)Cl`, which LD50 is on record?
Its LD50 is 7500 mg/kg.

Which LD50 does the source give for `COc1ccc([N+](=O)[O-])cc1` here?
Its LD50 is 2300 mg/kg.

For `CC1CC=NN1C(=N)N=C(N)N` (stereo not given), which LD50 is on record?
The LD50 was 4350 mg/kg.
